According to article PMC7531004, “Discovery of gramicidin A analogues with altered activities by multidimensional screening of a one-bead-one-compound library” (Nature Communications, 2020):
Where a SMILES comes first, the peptide text is derived from it. [ ]: non-standard residue; d: D form. The star is where a group is joined. NHCH2CH2OH = OCCN*; For = O=C*

Assays:
[1] = H+/Na+ transport assay of bead-derived peptides (one-point); format: biochemical; set-up: key: relative activity; mean of two control wells = 1.00; details: bead-derived peptide solution, EYPC/EYPG LUVs;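 further: relative to parent gramicidin A activity set to 1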
Method in brief: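 H+/Na+ transport is monitored through pyranine fluorescence in freshly extruded LUVs after a 30-min room-temperature vortex with each library peptide at a single concentration. Signals are normalized to detergent (Triton X-100) and untreated controls.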

[2] = tested on: Streptococcus pyogenes SSI-9; assay: Antibacterial activity assay of bead-derived peptides (three concentrations); format: cell-based; set-up: key: +++: inhibition by the 640-fold diluted peptide solution; ++: inhibition by the 160-fold diluted solution; +: inhibition by the 40-fold diluted solution; -: no inhibition; details: S. pyogenes, bead-derived peptide solution, three concentrations
Method in brief: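 First, each peptide stock was diluted 4- and 16-fold in DMSO; next, the three solutions were mixed with S. pyogenes SSI-9 suspension (2 × 10^5 CFU) in cation-adjusted Mueller Hinton Broth plus 5% laked horse blood; finally, plates stood 18 h at 37 °C before checking for grown-cell precipitation.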

[3] = tested on: P388 mouse leukemia cells; details: 92 h
Method in brief: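 Peptide stocks diluted 250× in growth medium; P388 cells 1 × 10^4 cells/mL final; 37 °C, 5% CO2, 92 h. WST-1 + 1-methoxy PMS, 4 h, A415. Output: % viability.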

**Q.** Which “H+/Na+ transport activity normalized against the value of 1 (1.00)” value [1] does the source give for `CNC(=O)C[C@@H](NC(=O)[C@H](Cc1c[nH]c2ccccc12)NC(=O)[C@H](NC(=O)[C@H](Cc1c[nH]c2ccccc12)NC(=O)[C@H](NC(=O)[C@H](Cc1c[nH]c2ccccc12)NC(=O)[C@@H](CC(C)C)NC(=O)[C@@H](NC(=O)[C@H](NC(=O)[C@H](C)NC(=O)[C@H](NC(=O)[C@H](C)NC(=O)CNC(=O)[C@@H](NC=O)C(C)C)C(C)C)C(C)C)C(C)C)C(C)C)C(C)C)C(=O)N[C@@H](Cc1c[nH]c2ccccc12)C(=O)NCCO` [compound 7271] (For-VGA[dV]A[dV]V[dL]W[dV]W[dV]W[dD](NHMe)W-NHCH2CH2OH) here?
**A.** Its value is 1.02.

**Q.** And the antibacterial activity [2]?
**A.** The antibacterial activity was “-”.

**Q.** And the cell viability/% [3]?
**A.** Its cell viability/% is 10.6%.

**Q.** Which results are given for `CC(C)C[C@@H](NC(=O)[C@H](C)NC(=O)[C@H](NC(=O)[C@H](C)NC(=O)CNC(=O)[C@@H](NC=O)C(C)C)C(C)C)C(=O)N[C@H](C(=O)N[C@H](CC(C)C)C(=O)N[C@@H](Cc1c[nH]c2ccccc12)C(=O)N[C@@H](C(=O)N[C@@H](Cc1c[nH]c2ccccc12)C(=O)N[C@@H](C(=O)N[C@@H](Cc1c[nH]c2ccccc12)C(=O)N[C@H](CC(C)C)C(=O)N[C@@H](Cc1c[nH]c2ccccc12)C(=O)NCCO)C(C)C)[C@H](C)O)C(C)C` [compound 7325] (For-VGA[dV]A[dL]V[dL]W[dT]W[dV]W[dL]W-NHCH2CH2OH)?
**A.** H+/Na+ transport activity normalized against the value of 1 (1.00) [1]: 1.04; antibacterial activity [2]: -; cell viability/% [3]: 82.2%

**Q.** Which “H+/Na+ transport activity normalized against the value of 1 (1.00)” value [1] does the source give for `CC(C)C[C@@H](NC(=O)[C@H](C)NC(=O)[C@H](NC(=O)[C@H](C)NC(=O)CNC(=O)[C@@H](NC=O)C(C)C)C(C)C)C(=O)N[C@H](C(=O)N[C@@H](C(=O)N[C@@H](Cc1c[nH]c2ccccc12)C(=O)N[C@@H](C(=O)N[C@@H](Cc1c[nH]c2ccccc12)C(=O)N[C@H](CC(C)C)C(=O)N[C@@H](Cc1c[nH]c2ccccc12)C(=O)N[C@@H](C(=O)N[C@@H](Cc1c[nH]c2ccccc12)C(=O)NCCO)[C@H](C)O)C(C)C)C(C)C)C(C)C` [compound 7393] (For-VGA[dV]A[dL]V[dV]W[dV]W[dL]W[dT]W-NHCH2CH2OH) here?
**A.** Its value is 1.07.

**Q.** And the antibacterial activity [2]?
**A.** Its antibacterial activity is “-”.

**Q.** And the cell viability/% [3]?
**A.** The cell viability/% was 100.0%.

**Q.** Which results are given for `CNC(=O)C[C@@H](NC(=O)[C@@H](NC(=O)[C@@H](CC(C)C)NC(=O)[C@H](C)NC(=O)[C@@H](CC(C)C)NC(=O)[C@H](C)NC(=O)CNC(=O)[C@@H](NC=O)C(C)C)C(C)C)C(=O)N[C@@H](Cc1c[nH]c2ccccc12)C(=O)N[C@H](CC(C)C)C(=O)N[C@@H](Cc1c[nH]c2ccccc12)C(=O)N[C@@H](C(=O)N[C@@H](Cc1c[nH]c2ccccc12)C(=O)N[C@H](CC(C)C)C(=O)N[C@@H](Cc1c[nH]c2ccccc12)C(=O)NCCO)C(C)C` [compound 7400] (For-VGA[dL]A[dL]V[dD](NHMe)W[dL]W[dV]W[dL]W-NHCH2CH2OH)?
**A.** H+/Na+ transport activity normalized against the value of 1 (1.00) [1]: 1.30; antibacterial activity [2]: -; cell viability/% [3]: 100.0%

**Q.** Which results are given for `CC(C)C[C@@H](NC(=O)[C@H](C)NC(=O)CNC(=O)[C@@H](NC=O)C(C)C)C(=O)N[C@@H](C)C(=O)N[C@H](CC(C)C)C(=O)N[C@H](C(=O)N[C@H](CC(C)C)C(=O)N[C@@H](Cc1c[nH]c2ccccc12)C(=O)N[C@@H](C(=O)N[C@@H](Cc1c[nH]c2ccccc12)C(=O)N[C@@H](C(=O)N[C@@H](Cc1c[nH]c2ccccc12)C(=O)N[C@@H](C(=O)N[C@@H](Cc1c[nH]c2ccccc12)C(=O)NCCO)C(C)C)C(C)C)C(C)C)C(C)C` [compound 7408] (For-VGA[dL]A[dL]V[dL]W[dV]W[dV]W[dV]W-NHCH2CH2OH)?
**A.** H+/Na+ transport activity normalized against the value of 1 (1.00) [1]: 1.06; antibacterial activity [2]: -; cell viability/% [3]: 19.4%
